Experimental data: patent publication US20250154525A1, “PLANT VIRUS MOVEMENT PROTEINS AND METHODS OF USING SAME” (Molecular Transfer, Inc., priority 2016, published 2025)

What was measured:
HeLa Cells [1] = assay: GFP plasmid transfection with DOTMA/DOPE plus surface ligand peptide, fluorescent plate reader (Example 1); format: cell-based; conditions: DOTMA/DOPE + peptide linked to R12 or K16; EF1Alpha eGFP plasmid; 42 hours
Experimental: (§1) Cells were plated to so that on the day of transfection the cells were 70% confluent in 96 well tissue culture plates. A DOMTA/DOPE Lipid solution (1:1 molar ratio) at 2 mg/mL in water were mixed with an equal volume cell surface ligand containing adhesion peptide, the plant virus movement protein, or peptide derived therefrom, that had the nucleic acid binding moiety RRRRRRRRRRRR (SEQ ID NO:109) or KKKKKKKKKKKKKKKK (SEQ ID NO: 102) covalently linked to the N-terminus, or C-terminus of each peptide during peptide synthesis. Peptides were at 2 mg/mL in water. The DOTMA/DOPE and the solution containing the cell surface ligand containing adhesion peptide, the plant virus movement protein, or peptide derived therefrom, surface ligand peptide the was diluted 1 to 1 (v/v) in water. DOMTA/DOPE/PEPTIDE solutions were added to 0.1 mL of a plasmid DNA solution (EF1Alpha eGFP plasmid) at 10 μg/mL in OptiMEM.
(§2) All solutions were at room temperature. A volume of 0.2 mL of a 10 μg/mL solution of DNA was aliquoted into each well of a non-tissue cultured treated plate. 1-12 μL of transfection reagents were added to DNA solutions respectively. The transfection reagent and DNA solution was mixed by pipetting up and down twice. Transfection complexes were formed for 10 minutes. After 10 minutes, 0.01 or 0.02 mL of the transfection complex was added to cells. HuVEC, HeLa, human adult keratinocytes, human primary adult fibroblast, and A549 cells all respectively received 0.01 mL of the transfection complex. Human skeletal muscle cells, mouse C2C12 cells, and Jurkat, cells received 0.02 mL of the transfection complex. Cells were incubated for 42 hours at 37° C. at 5% CO2. Plates were read on a fluorescent plate reader. Cells were also examined visually under a microscope to assess the extent of transfection (in terms of the percent of cells transfected) with a fluorescent microscope. Other modes of analysis, for example quantification with B-galactocidase or luciferase reports plasmids can also be used.
(§3) Surface ligand that caused increase expression of GFP over the lipid DOTMA with no surface ligand were considered to enhance transfection or had higher % cells transfected were considered to enhance transfection. Peptides that gave greater than 2-fold enhancement are noted in bold and could be further optimized by adding different transfection enhancers or could be used with different cationic lipids or polymers.
(§4) Tables 2-7, below, provide the results of the transfection enhancements with the various cell types, while Table 8 lists the peptides that were determined by visual inspection to enhance the transfection of the denoted cell lines over the lipid DOTMA.

HuVec Cells = assay: as above; format: cell-based; conditions: DOTMA/DOPE + peptide linked to R12 or K16; EF1Alpha eGFP plasmid; 42 hours
Experimental: as §1, §2, §3, §4

Human Fibroblast Cells = assay: as above; format: cell-based; conditions: DOTMA/DOPE + peptide linked to R12 or K16; EF1Alpha eGFP plasmid; 42 hours
Experimental: as §1, §2, §3, §4

Jurkat Cells = assay: as above; format: cell-based; conditions: DOTMA/DOPE + peptide linked to R12 or K16; EF1Alpha eGFP plasmid; 42 hours
Experimental: as §1, §2, §3, §4

NL-1 iPS Cells = assay: as above; format: cell-based; conditions: DOTMA/DOPE + peptide linked to R12 or K16; EF1Alpha eGFP plasmid; 42 hours
Experimental: as §1, §2, §3, §4

C2C12 Cells = assay: as above; format: cell-based, mouse; conditions: DOTMA/DOPE + peptide linked to R12 or K16; EF1Alpha eGFP plasmid; 42 hours
Experimental: as §1, §2, §3, §4

HeLa Cells [2] = assay: GFP transfection with DOTMA/SEQ ID NO: 72 (fusogenic peptide)/peptide compared with Lipofectamine 2000; format: cell-based
Experimental: as §1, §2
The fusogenic peptide was added to the DOMTA/peptide formulation to achieve a final concentration of 0.1 mg/mL to see if transfection reagents were further enhanced by the addition of a fusogenic peptide and could provide higher transfection efficiency into HeLa cells and expression than the commercially available Lipofectamine 2000.

some examined cell types = assay: Summary of Example 1: transfection expression and % cells transfected over the no peptide control; format: cell-based; conditions: on some examined cell types
Experimental: as §1, §2, §3

[3] = 0.1 μL of DOTMA/SEQ ID NO: 72/Peptide in well of a 96 well plate
[4] = 0.2 μL of DOTMA/SEQ ID NO: 72/Peptide in well of a 96 well plate
[5] = 0.3 μL of DOTMA/SEQ ID NO: 72/Peptide in well of a 96 well plate
[6] = 0.4 μL of DOTMA/SEQ ID NO: 72/Peptide in well of a 96 well plate

Substance | Relative Fluorescence of Transfection of HeLa Cells (RF) (HeLa Cells [1]) | Relative Fluorescence of Transfection of HuVec Cells (RF) (HuVec Cells) | Relative Fluorescence of Transfection of Human Fibroblast Cells (RF) (Human Fibroblast Cells) | Relative Fluorescence of Transfection of Jurkat Cells (RF) (Jurkat Cells) | Relative Fluorescence of Transfection of NL-1 iPS Cells (RF) (NL-1 iPS Cells) | Relative Fluorescence of Transfection of C2C12 Cells (RF) (C2C12 Cells) | Relative Fluorescence DOTMA/SEQ ID NO: 72/Peptide, HeLa Cells (RF) (HeLa Cells [2]; [3]) | Relative Fluorescence DOTMA/SEQ ID NO: 72/Peptide, HeLa Cells (RF) (HeLa Cells [2]; [4]) | Relative Fluorescence DOTMA/SEQ ID NO: 72/Peptide, HeLa Cells (RF) (HeLa Cells [2]; [5]) | Relative Fluorescence DOTMA/SEQ ID NO: 72/Peptide, HeLa Cells (RF) (HeLa Cells [2]; [6]) | transfection expression and % cells transfected over the no peptide control (some examined cell types)
219 (RKRLQVQLSIRT) [compound 219] | 13721 | 6237 | 7389 | 10762 | 5770 | 1346 | 12135 | 13841 | 13531 | 11712 | increased transfection expression and the % cells transfected
377 (TAGSCLRRFSTM) [compound 377] | 15091 | 9326 | 6638 | 6785 | 5474 | 1710 | 39115 | 40072 | 32914 | 22457 | increased transfection expression and the % cells transfected
360 (GDLGRPGRKGRPGPP) [compound 360] | 8516 | 24042 | 5347 | 16607 | 27572 | 2090 | 9946 | 11168 | 10381 | 8995 | increased transfection expression and the % cells transfected
218 (SPPRRARVT) [compound 218] | 11179 | 14827 | 11230 | 21451 | 17049 | 3706 | 12686 | 13103 | 10151 | 10081 | increased transfection expression and the % cells transfected
381 (TAGSCL) [compound 381] | 22652 | 17542 | 9953 | 10806 | 9644 | 8834 | 34187 | 37463 | 27007 | 20088 | increased transfection expression and the % cells transfected
454 (TGLSCLQRFTTM) [compound 454] | 34550 | 13336 | 7568 | 8224 | 18100 | 9280 | 34033 | 37099 | 27412 | 16023 | increased transfection expression and the % cells transfected
341 (LRAHAVDVNG) [compound 341] | 4108 | 15906 | 2284 | 18042 | 20446 | 2141 | 6406 | 7469 | 8020 | 7546 | increased transfection expression and the % cells transfected
347 (DLGTAGSCLRKFSTM) [compound 347] | 22527 | 20728 | 9255 | 17720 | 21865 | 4457 | 23188 | 21493 | 16814 | 14140 | increased transfection expression and the % cells transfected
357 (SETTVKYIFRLHE) [compound 357] | 22679 | 6009 | 7167 | 2256 | 15624 | 4506 | 7718 | 11798 | 9229 | 9107 | increased transfection expression and the % cells transfected
379 (TAGSCLRKF) [compound 379] | 27424 | 14573 | 8520 | 7711 | 6894 | 3189 | 50018 | 47049 | 39036 | 26448 | increased transfection expression and the % cells transfected
328 (NWRHISYITRFG) [compound 328] | 32528 | 3614 | 5641 | 4770 | 8611 | 5507 | 11037 | 12229 | 10801 | 10951 | increased transfection expression and the % cells transfected
